≈ marks a conversion by molar mass, not a printed value.
Key:
[1] = system: Neisseria subflava/flavescens/perflava; assay: minimum inhibitory concentration (ETEST); conditions: population: general population, antibiotic use in previous 6 months: No
Description: (§1)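 Oropharyngeal Neisseria isolates from MSM and employees in Belgium were identified to species by MALDI-TOF MS. MICs of azithromycin, ceftriaxone and ciprofloxacin were determined by ETEST on GC agar after 24 h at 36.5 °C and 5-7% CO2, in mg/L. Values beyond the strip range are reported as >256 (azithromycin) or <0.016 (ceftriaxone); isolates that did not grow are NA.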

Neisseria mucosa/macacae = assay: minimum inhibitory concentration (ETEST)
Description: as §1

CO/N=C(\C(=O)N[C@@H]1C(=O)N2C(C(=O)O)=C(CSc3nc(=O)c(O)nn3C)CS[C@H]12)c1csc(N)n1 [ceftriaxone]
[1]
Conditions | minimum inhibitory concentration [µg/mL]
isolate id (sample isolate): Co000773_1 | 0.064 (≈ 0.115 µM)
isolate id (sample isolate): Co000773_2 | 0.064 (≈ 0.115 µM)
isolate id (sample isolate): Co000774_2 | 0.016 (≈ 0.0289 µM)
isolate id (sample isolate): Co000775_1 | 0.032 (≈ 0.0577 µM)
isolate id (sample isolate): Co000775_2 | 0.047 (≈ 0.0847 µM)
isolate id (sample isolate): Co000775_3 | 0.094 (≈ 0.169 µM)
isolate id (sample isolate): Co000776_2 | 0.125 (≈ 0.225 µM)
isolate id (sample isolate): Co000776_3 | 0.125 (≈ 0.225 µM)
isolate id (sample isolate): Co000777_1 | 0.064 (≈ 0.115 µM)
isolate id (sample isolate): Co000777_2 | 0.047 (≈ 0.0847 µM)
isolate id (sample isolate): Co000777_4 | 0.047 (≈ 0.0847 µM)
isolate id (sample isolate): Co000778_1 | 0.094 (≈ 0.169 µM)
isolate id (sample isolate): Co000778_2 | 0.047 (≈ 0.0847 µM)
isolate id (sample isolate): Co000778_3 | 0.094 (≈ 0.169 µM)
isolate id (sample isolate): Co000780_4 | 0.125 (≈ 0.225 µM)
isolate id (sample isolate): Co000781_1 | 0.094 (≈ 0.169 µM)
isolate id (sample isolate): Co000781_3 | 0.064 (≈ 0.115 µM)
isolate id (sample isolate): Co000781_4 | 0.094 (≈ 0.169 µM)
isolate id (sample isolate): Co000782_2 | 0.047 (≈ 0.0847 µM)
isolate id (sample isolate): Co000782_3 | 0.25 (≈ 0.451 µM)
isolate id (sample isolate): Co000782_4 | 0.047 (≈ 0.0847 µM)
isolate id (sample isolate): Co000783_1 | 0.125 (≈ 0.225 µM)
isolate id (sample isolate): Co000783_2 | 0.032 (≈ 0.0577 µM)
isolate id (sample isolate): Co000783_5 | 0.032 (≈ 0.0577 µM)
isolate id (sample isolate): Co000784_1 | 0.023 (≈ 0.0415 µM)
isolate id (sample isolate): Co000784_2 | 0.047 (≈ 0.0847 µM)
isolate id (sample isolate): Co000784_5 | 0.032 (≈ 0.0577 µM)
isolate id (sample isolate): Co000785_1 | 0.047 (≈ 0.0847 µM)
isolate id (sample isolate): Co000785_2 | 0.047 (≈ 0.0847 µM)
isolate id (sample isolate): Co000785_3 | 0.064 (≈ 0.115 µM)
isolate id (sample isolate): Co000785_4 | 0.064 (≈ 0.115 µM)
isolate id (sample isolate): Co000786_1 | 0.032 (≈ 0.0577 µM)
isolate id (sample isolate): Co000786_2 | 0.064 (≈ 0.115 µM)
isolate id (sample isolate): Co000787_1 | 0.032 (≈ 0.0577 µM)
isolate id (sample isolate): Co000787_2 | 0.023 (≈ 0.0415 µM)
isolate id (sample isolate): Co000787_4 | 0.016 (≈ 0.0289 µM)
isolate id (sample isolate): Co000788_2 | 0.047 (≈ 0.0847 µM)
isolate id (sample isolate): Co000788_3 | 0.047 (≈ 0.0847 µM)
isolate id (sample isolate): Co000788_5 | 0.016 (≈ 0.0289 µM)
isolate id (sample isolate): Co000789_1 | 0.032 (≈ 0.0577 µM)
isolate id (sample isolate): Co000790_2 | 0.032 (≈ 0.0577 µM)
isolate id (sample isolate): Co000790_4 | 0.047 (≈ 0.0847 µM)

Neisseria mucosa/macacae
Conditions | minimum inhibitory concentration [µg/mL]
isolate id (sample isolate): 19041762_2, population: MSM, antibiotic use in previous 6 months: Yes | 0.032 (≈ 0.0577 µM)
isolate id (sample isolate): 19051904_1, population: MSM, antibiotic use in previous 6 months: Yes | 0.047 (≈ 0.0847 µM)
isolate id (sample isolate): 19052394_2, population: MSM, antibiotic use in previous 6 months: Yes | 0.032 (≈ 0.0577 µM)
isolate id (sample isolate): 19062968_1, population: MSM, antibiotic use in previous 6 months: Yes | 0.064 (≈ 0.115 µM)
isolate id (sample isolate): 19081774_2, population: MSM, antibiotic use in previous 6 months: No | 0.094 (≈ 0.169 µM)
isolate id (sample isolate): 19111422_4, population: MSM, antibiotic use in previous 6 months: No | 0.032 (≈ 0.0577 µM)
isolate id (sample isolate): 19111422_7, population: MSM, antibiotic use in previous 6 months: No | 0.032 (≈ 0.0577 µM)
isolate id (sample isolate): Co000770_5, population: general population, antibiotic use in previous 6 months: No | 0.047 (≈ 0.0847 µM)
isolate id (sample isolate): Co000771_4, population: general population, antibiotic use in previous 6 months: No | 0.064 (≈ 0.115 µM)
isolate id (sample isolate): Co000772_3, population: general population, antibiotic use in previous 6 months: No | 0.032 (≈ 0.0577 µM)
isolate id (sample isolate): Co000773_3, population: general population, antibiotic use in previous 6 months: No | 0.032 (≈ 0.0577 µM)
isolate id (sample isolate): Co000779_1, population: general population, antibiotic use in previous 6 months: No | 0.125 (≈ 0.225 µM)
isolate id (sample isolate): Co000783_3, population: general population, antibiotic use in previous 6 months: No | 0.032 (≈ 0.0577 µM)
isolate id (sample isolate): Co000783_6, population: general population, antibiotic use in previous 6 months: No | 0.032 (≈ 0.0577 µM)
isolate id (sample isolate): Co000787_3, population: general population, antibiotic use in previous 6 months: No | 0.094 (≈ 0.169 µM)
isolate id (sample isolate): Co000788_1, population: general population, antibiotic use in previous 6 months: No | 0.032 (≈ 0.0577 µM)
isolate id (sample isolate): Co000788_4, population: general population, antibiotic use in previous 6 months: No | 0.032 (≈ 0.0577 µM)

From the supplement of paper PMC8741786
